Measured values: US20160095923A1, “ORAL COMPOSITION COMPRISNG (+)-CATECHIN” (VALORE, priority 2013, published 2016)

Experiments:
[1] = Bioavailability after oral administration in human beings (free monomeric (+)-catechin in plasma, LC-MS/MS)
Experimental: (§1) The experimental results described below were obtained on the basis of a study carried out in healthy human beings and in healthy Wistar rats weighing approximately 250 grams.
(§2) With regard to taking the blood samples from the rats and from the human beings, the blood was collected in tubes internally coated with EDTA and was then centrifuged at 3000 rpm (revolutions per minute) at ambient temperature for 45 min, and then for 15 min at a temperature of 4° C. The plasma was then collected and stored at −70° C. before analysis.
(§3) The analytical technique (LC-MS/MS for Liquid Chromatography coupled to tandem Mass Spectrometry) for measuring the active substance in the blood was based on the method described by Mata-Bilbao et al., published in 2007 in the Journal of Agricultural and Food Chemistry, volume 55, page 8857.
(§4) The free (+)-catechin was extracted from the plasma with a solution of phosphoric acid, EDTA and ascorbic acid and was then purified by SPE (solid phase extraction); in particular, it is an Oasis™ HLB extraction which is analyzed by LC-MS/MS. The quantification was carried out according to a standard calibration procedure with (+/−)-catechin-2,3,4-^13C3 as internal standard (SI).
This complex salt is administered to a group A of 5 healthy volunteers.
This ct parameter makes it possible to calculate, from the data of table 1, the bioavailability of the (+)-catechin expressed in ng h/ml.

rat skin = assay: Total incorporation and incorporation into collagen of 3H-proline in the skin; assay type: in vivo, Wistar rats; details: 100 mg/kg by gavage for 5 days
Experimental: To do this, a study was carried out in vivo on a batch of 24 female Wistar rats weighing from 95 to 115 g, divided into two groups C and D, each of 12 rats. For each group, the radioactive 3H-hydroxyproline, the specific activity of which is 13.6 Ci/10^−3 mol, was administered to all the animals by intraperitoneal injection of proline-L-(5-3H) at a dose, relative to the weight of the individuals, of 1 mCi/kg, which represents an activity in terms of radioactive 3H-proline of 100 μCi/individual.
6 rats of each group received a treatment based on monomeric (+)-catechin by gavage in a proportion of 100 mg/kg for 5 days before sacrifice. […] The group C received monomeric (+)-catechin hydrochlorolysinate, while the group D received monomeric (+)-catechin ascorbolysinate.
In table 8, the level of incorporation is measured by the number of disintegrations of the radioactive 3H-hydroxyproline per minute (dpm) per mg of dry weight. The higher this number, the higher the concentration of 3H-hydroxyproline.
In this comparative example, a group E of 12 Wistar rats weighing from 95 to 115 g, in which radioactive 3H-hydroxyproline, the specific activity of which is 13.6 Ci/10^−3 mol, was administered to all the individuals by intraperitoneal injection of proline-L-(5-3H) at a dose, relative to the weight of the individuals, of 1 mCi/kg, which represents an activity in terms of radioactive 3H-proline of 100 ρCi/individual.
6 rats of each group received a treatment based on pure monomeric (+)-catechin by gavage in a proportion of 100 mg/kg for 5 days before sacrifice.
In table 9, the level of incorporation is measured by the number of disintegrations of the radioactive 3H-hydroxyproline per minute (dpm) per mg of dry weight. The higher this number, the higher the concentration of 3H-hydroxyproline.

Solubility in water = assay type: physicochemical
[2] = Bioavailability after oral administration or intravenous injection in Wistar rats (free/total polyphenol in plasma, LC-MS/MS); details: per os
Experimental: as §1
An acclimation period was observed before beginning the experiments.
The rats received an administration per os of a volume of 5 ml of a solution of active product.
as §2, §3, §4
The procedure is identical with regard to the extraction and the quantification of free quercetin or ECGC in the blood.
With regard to the extraction and quantification of the total (+)-catechin, the procedure is the same as that applied to the free (+)-catechin, with the exception of the fact that an additional step prior to the purification by SPE is carried out.
Each of the mixtures is then solubilized in water.
Each of the mixtures is solubilized in water.

[3] = group B, oral 1 g pure catechin, free catechin
[4] = free catechin, dose equivalent to 100 mg/kg catechin, 5 rats
[5] = free catechin, equivalent to 25 mg/kg, 3 rats (comparative example 4)
[6] = free catechin, equivalent to 25 mg/kg, 5 rats, mixture dissolved in water (comparative examples 6-9)
[7] = total (+)-catechin, equivalent to 25 mg/kg, 3 rats

## Oc1cc(O)c2c(c1)O[C@H](c1ccc(O)c(O)c1)[C@@H](O)C2 [CP, (+)-catechin]
[1]; group B, oral 1 g pure catechin, T 0.5 h
  plasma concentration (cc) of free monomeric (+)-catechin: 59 ± 61 ng/mL
[1]; group B, oral 1 g pure catechin, T 1 h
  plasma concentration (cc) of free monomeric (+)-catechin: 266 ± 147 ng/mL
[1]; group B, oral 1 g pure catechin, T 2 h
  plasma concentration (cc) of free monomeric (+)-catechin: 230 ± 87 ng/mL
[1]; group B, oral 1 g pure catechin, T 3 h
  plasma concentration (cc) of free monomeric (+)-catechin: 226 ± 38 ng/mL
[1]; group B, oral 1 g pure catechin, T 4 h
  plasma concentration (cc) of free monomeric (+)-catechin: 128 ± 51 ng/mL
[1]; group B, oral 1 g pure catechin, T 6 h
  plasma concentration (cc) of free monomeric (+)-catechin: 27 ± 13 ng/mL
[1]; [3]
  T (max): 1.20 h
  ct (total concentration, area under curve over 6 h): 904 ± 163 ng·h/mL
[1]; oral 1 g pure catechin, free catechin
  c (max): 280 ng/mL
[1]; oral, humans, as stated in summary text
  T (max): 1.33 h
[1]; oral, scaled from 1 g to 0.92 g dose
  c (max) related to 0.92 g of pure (+)-catechin: 258 ng/mL
[1]; oral, scaled from 1 g to 0.92 g dose, listed as pure (+)-catechin
  ct related to 0.92 g of pure (+)-catechin: 832 ± 150 ng·h/mL
Rat skin
  increase in the level of incorporation versus control: +16%
Rat skin; treated subgroup
  level of incorporation into collagen (IC) of 3H-hydroxyproline in rat skin: 1124 ± 51 dpm/mg
  level of total incorporation (IT) of 3H-hydroxyproline in rat skin: 5689 ± 410 dpm/mg
Solubility in water; at 20° C.
  solubility in water: 0.9 g per liter
Solubility in water; pure catechin versus complex with basic amino acid
  solubility in water, times lower than in the form of a complex: 400 times
[2]; free catechin, dose equivalent to 100 mg/kg catechin
  Δct (difference of ct to CP): 0%
[2]; [4]
  T (max): 1 h
  c (max): 716 ng/mL
  ct: 96 238 ng min/ml
[2]; free catechin, equivalent to 25 mg/kg (comparative example 4)
  Δct (difference of ct to CP): 0%
[2]; free catechin, equivalent to 25 mg/kg (comparative examples 7-9)
  Δct (difference of ct to CP): 0%
[2]; [5]
  T (max): 0.5 h
  c (max): 154 ng/mL
  ct: 21 145 ng min/ml
[2]; [6]
  T (max): 1 h
  c (max): 580 ng/mL
[2]; total (+)-catechin, equivalent to 25 mg/kg
  Δct (difference of ct to CP): 0%
[2]; [7]
  T (max): 0.5 h
  c (max): 2200 ng/mL
  ct: 273 875 ng min/ml
